What was measured:
[1] = target: T1, angiotensin II receptor (Rattus norvegicus, UniProt P25095); experiment: Test on the angiotensin II receptor (displacement of 125I angiotensin II from rat liver membranes); format: binding; settings: rat liver membrane preparation, 25° C., 150 minutes, Tris buffer pH 7.4, read-out: IC50 in Nanomoles
T1 construct: A fresh membrane preparation obtained from rat's liver was used; from tissue; host or cells: rat liver membranes
T1 sequence (P25095 1-359): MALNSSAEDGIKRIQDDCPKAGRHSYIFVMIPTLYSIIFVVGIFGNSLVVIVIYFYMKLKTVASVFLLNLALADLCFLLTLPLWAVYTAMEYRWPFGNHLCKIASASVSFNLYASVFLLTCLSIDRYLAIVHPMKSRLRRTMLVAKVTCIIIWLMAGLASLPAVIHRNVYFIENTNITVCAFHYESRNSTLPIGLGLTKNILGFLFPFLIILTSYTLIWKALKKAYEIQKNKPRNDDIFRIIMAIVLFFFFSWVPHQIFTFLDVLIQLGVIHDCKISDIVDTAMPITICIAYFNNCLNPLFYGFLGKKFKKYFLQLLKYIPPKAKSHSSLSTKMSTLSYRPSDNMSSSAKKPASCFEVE
Description: 1--Test on the angiotensin II receptor
A fresh membrane preparation obtained from rat's liver was used and the tissue was ground up in a polytron in a 50 mM Tris buffer pH 7.4. The grinding process was followed by 3 centrifugations at 30,000 g for 15 minutes with intermediate taking up of the pellets in the Tris buffer pH 7.4. The last pellets were suspended in an incubation buffer (20 mM Tris, 135 mM NaCl, 10 mM KCl, 5 mM glucose, 10 mM MgCl2, 0.3 mM PMSF, 0.1 mM bacitracin, 0.2% BSA. 2 ml aliquoted fractions were distributed in hemolysis tubes and 125I angiotensin II (25,000 DPM/tube) and the product under test were added. The product was first tested at 3×10^-5 M three times. When the product tested displaced more than 50% of the radioactivity linked specifically to the receptor, it was tested again in a range of 7 concentrations to determine the concentration which inhibited 50% of the radioactivity linked specifically to the receptor. In this way, the 50% inhibiting concentration was determined.
The non-specific bond was determined by the addition of a product of Example 94 of European Patent No. 0,253,310 at 10^-5 M (three times). After incubation at 25° C. for 150 minutes, the suspension was put in a water-bath at 0° C. for 5 minutes, filtered under vacuum, rinsed with a Tris pH 7.4 buffer and the radioactivity was counted in the presence of scintillating Triton. The result was expressed directly as a 50% inhibiting concentration (IC50), that is to say the concentration of product studied, expressed in […], necessary to displace 50% of the specific radioactivity fixed to the receptor studied.

[2] = system: angiotensin II; experiment: Test of the antagonistic activity of angiotensin II in a demedullated rat (diastolic arterial pressure); format: in vivo, Male Sprague Dawley rats; settings: iv, venous route, injected 5 minutes before angiotensin II (0.75 micrograms/kg), pressure effects, read-out: 50% Inhibitory Doses
Description: 2--Test of the antagonistic activity of angiotensin II in a demedullated rat
Male Sprague Dawley rats weighing 250 to 350 g were anaesthetized by an intraperitoneal injection of sodium pentobarbital (60 mg/kg). The diastolic arterial pressure was recorded with a heparinated catheter (PE50) introduced into the left carotid of the animal and connected to a pressure processor (Gould, Pressure Processor) via a Gould pressure sensor. A catheter was introduced into the right jugular of the animal for the injection of the molecules to be studied. The animal was placed under assisted respiration and a bilateral section of the vagus nerves was carried out. The rat was then demedullated.
After a sufficient period of stabilization, study of the antagonism of the compound vis-a-vis angiotensin II (Hypertensin Ciba) was started in the following way.
1--Three consecutive injections of angiotensin II (0.75 micrograms/kg) spaced 15 minutes apart which allowed a reproducible and stable pressure response to be obtained. […]
The pressure effects of the angiotensin II in the presence of the antagonist were expressed as a percentage of the pressure effects of the angiotensin II administered alone. The 50% inhibitory dose of the studied effect was thus determined. […]

| IC50 [1] [nM] | SMILES | ED50 [2] [mg/kg] |
| --- | --- | --- |
| 5.3 | CCCCc1nc2c(n1Cc1ccc(-c3ccccc3S(=O)(=O)NC(=O)NCCC)cc1)C(=NO)CCS2 [Example 7, 4'-[(2-butyl-7-(hydroxyimino)-1,5,6,7-tetrahydro-thiopyrano[2,3-d)-imidazol-1-yl)-methyl]-N-[(propylamino)-carbonyl]-(1,1'-biphenyl)-2-sulfonamide] | – |
| 1.3 | CCCCc1nc2c(n1Cc1ccc(-c3ccccc3S(=O)(=O)NC(=O)NCCC)cc1)C(=O)CCS2 [Example 3, 4'-[(2-butyl-6,7-dihydro-7-oxo-thiopyrano-(2,3-d)imidazol-1-(5H)-yl)-methyl]-N-[(propylamino)-carbonyl]-(1,1,'-biphenyl)-2-sulfonamide] | 0.08 |
| 0.2 | CCCCc1nc2c(n1Cc1ccc(-c3ccccc3S(=O)(=O)NC(=O)OCC)cc1)C(=O)CCS2 [Example 4] | 0.09 |
